The results in this text go back to patent US5496853A, “Benzoxa condensed ring compounds, process for producing the same and pharmaceutical composition comprising the same” (Teijin Limited, priority 1990, dated 1996).

Where a name gives a salt, the structure may show the parent alone.

For this assay, the target named is T1, ACAT (Oryctolagus cuniculus, UniProt G1SFD9).
T1 construct: from tissue; host or cells: domestic rabbit intestinal mucosa, microsome fraction (105,000×g precipitate)
T1 sequence (G1SFD9 1-524): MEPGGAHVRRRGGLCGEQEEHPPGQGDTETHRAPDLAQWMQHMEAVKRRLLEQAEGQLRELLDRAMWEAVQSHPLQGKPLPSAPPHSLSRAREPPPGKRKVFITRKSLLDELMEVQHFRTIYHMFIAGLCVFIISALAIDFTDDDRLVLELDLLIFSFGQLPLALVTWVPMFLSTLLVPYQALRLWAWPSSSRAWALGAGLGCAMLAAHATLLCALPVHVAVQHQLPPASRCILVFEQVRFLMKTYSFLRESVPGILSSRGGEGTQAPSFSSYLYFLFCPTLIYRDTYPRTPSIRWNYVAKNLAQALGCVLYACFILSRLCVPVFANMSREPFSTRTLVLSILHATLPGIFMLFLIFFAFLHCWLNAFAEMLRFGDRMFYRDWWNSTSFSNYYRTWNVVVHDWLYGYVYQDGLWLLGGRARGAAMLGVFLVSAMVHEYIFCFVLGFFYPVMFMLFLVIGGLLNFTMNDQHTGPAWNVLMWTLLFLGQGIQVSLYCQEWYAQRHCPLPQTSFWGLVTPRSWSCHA
Nature of the assay: ACAT enzyme inhibitory activity of rabbit intestinal mucosa. Particulars: rabbit intestinal mucosa microsome, [1-14C] oleoyl CoA, 37° C., pH 7.4. The class given is biochemical. As to the method: Measurement of ACAT enzyme inhibitory activity (measurement of ACAT enzyme inhibitory activity of rabbit intestinal mucosa)
Preparation of a domestic rabbit intestinal mucosa microsome and measurement of the ACAT enzyme activity were conducted by slightly modifying a method established by Salone and Field (see Biochemica et Biophysica, vol. 712, 557 (1982).
The supernatant was further centrifuged at 105,000×g and a temperature of 4° C. for one hour to provide a precipitate. The precipitate was resuspended in the buffer A to provide a microsome fraction.
A 1 %v/v dimethylsulfoxide solution of each specimen compound in a predetermined concentration was added to the buffer A containing 43 μM serum albumin and 0.5 mg/ml microsome fraction, and the mixture was heated at 37° C. for 5 min.
Then, 43 μM oleoyl CoA containing [1^-14 C] oleoyl CoA (3.7 kB) was added thereto, the mixture was heated at 37° C. for 10 rain, and chloroform/methanol (2/1) containing 10 mg/ml cholesteryl oleate was added thereto to terminate the reaction.
0.111 kB of [^3 H] cholesteryl oleate and 1N hydrochloric acid were added thereto, and the mixture was stirred. The cholesteryl oleate extracted into the chloroform layer was isolated by thin-layer chromatography, and the radioactivity was measured as the ACAT activity.
Molecule `CCCCCCCCCCC1(C(=O)Nc2cccc3nc(-c4cccnc4)oc23)CCCC1` [Ex. 2, N-[2-(3-pyridyl)benzoxazol-7-yl]-1-decylcyclopentanecarboxamide] yielded an IC50 of 830 nM.

Consider `Cc1ccc2c(c1NC(=O)NCC1(c3ccccc3)CCCC1)OC(C)(C)C2` [Ex. 3], for which 340 nM corresponded to half-maximal inhibition (IC50).

`CCCCCCCCCCC(C)(C)C(=O)Nc1c(C)c([N+](=O)[O-])c(C)c2c1OC(C)(C)C2` [Ex. 6, N-(2,2,4,6-tetramethyl-5-nitro-2,3-dihydrobenzofuran-7-yl)-2,2-dimethyldodecaneamide] gave a concentration for half-maximal inhibition (IC50) of 19 nM.

In turn, `Cc1cc(C)c(NC(=O)C(C)(C)CCCCCOc2ccc([N+](=O)[O-])cc2)c2c1CC(C)(C)O2` [Ex. 10, N-(2,2,4,6-tetramethyl-2,3-dihydrobenzofuran-7-yl)-[2,2-dimethyl-7-(4-nitrophenyloxy)]heptaneamide] displayed an IC50 of 230 nM.

On to `Cc1cc2nc(-c3ccccc3)oc2c(NC(=O)NCC2(c3ccccc3)CCCC2)c1C` [Ex. 13], for which half-maximal inhibition (IC50) required 400 nM.

`CCCCCCCCCCC1(C(=O)Nc2cccc3nc(-c4ccccc4)oc23)CCCC1` [Ex. 18]: the IC50 stood at 500 nM.

`CCCCCCCCCCCCNC(=O)Nc1c(C)ccc2c1OC(C)(C)C2` [Ex. 23] showed an IC50 of 220 nM.

Turning to `CCCCCCCCCCNc1ccc(C(=O)Nc2c(C)cc(C)c3c2OC(C)(C)C3)cc1` [Ex. 33], the IC50 turned out to be 110 nM.

The molecule `Cc1ccc2c(c1NC(=O)C(C)(C)CCCCOc1ccc(C(C)(C)C)cc1)OC(C)(C)C2` [Ex. 37] showed an IC50 of 340 nM.

For the molecule `Cc1cc(C)c(NC(=O)C(C)(C)CCCCCCBr)c2c1CC(C)(C)O2` [Ex. 38], the IC50 turned out to be 180 nM.

The molecule `CCCCCCCCC(C)(C)C(=O)Nc1c(C)cc(C)c2c1OC(C)(C)C2` [Ex. 39] had an IC50 of 72 nM.

`CCCc1ccc(CCCC(C)(C)C(=O)Nc2c(C)cc(C)c3c2OC(C)(C)C3)cc1` [Ex. 44]: the IC50 came out at 66 nM.

On to `CCCCCCOc1ccc(CCCC(C)(C)C(=O)Nc2c(C)cc(C)c3c2OC(C)(C)C3)cc1` [Ex. 46], for which the IC50 came out at 34 nM.

`Cc1cc(C)c(NC(=O)C(C)(C)CCCCOCCCC(C)C)c2c1CC(C)(C)O2` [Ex. 47] showed an IC50 of 190 nM.

In turn, `Cc1cc(C)c(NC(=O)C(C)(C)CCCCCCOCCCC(C)C)c2c1CC(C)(C)O2` [Ex. 48] showed an IC50 of 57 nM.

`Cc1cc(C)c(NC(=O)C(C)(C)CCCCCOCCc2ccccc2)c2c1CC(C)(C)O2` [Ex. 54]: it took 100 nM to reach half-maximal inhibition (IC50).

On to `Cc1cc(C)c(NC(=O)C(C)(C)CCCCCOCCOC(C)C)c2c1CC(C)(C)O2` [Ex. 55], for which it took 170 nM to reach half-maximal inhibition (IC50).

Molecule `COCCCCCCC(C)(C)C(=O)Nc1c(C)cc(C)c2c1OC(C)(C)C2` [Ex. 56] displayed an IC50 of 330 nM.

`Cc1cc(C)c(NC(=O)C(C)(C)CCCCCOc2ccc(Cl)cc2Cl)c2c1CC(C)(C)O2` [Ex. 63] returned an IC50 of 220 nM.

`Cc1ccc(OCCCCCC(C)(C)C(=O)Nc2c(C)cc(C)c3c2OC(C)(C)C3)c(C)c1` [Ex. 64] gave an IC50 of 910 nM.

In the case of `Cc1cc(C)c(NC(=O)C(C)(C)CCCCCOc2ccc(C(C)C)cc2)c2c1CC(C)(C)O2` [Ex. 65], the IC50 was 86 nM.

`Cc1cc(C)c(NC(=O)C(C)(C)CCCCCOc2ccc(N)cc2)c2c1CC(C)(C)O2` [Ex. 66] displayed an IC50 of 460 nM.

`Cc1cc(C)c(NC(=O)C(C)(C)CCCCCOc2ccc(N(C)C)cc2)c2c1CC(C)(C)O2` [Ex. 67]: the IC50 was determined as 190 nM.

`Cc1cc(C)c(NC(=O)C(C)(C)CCCCCCOc2ccc(F)cc2)c2c1CC(C)(C)O2` [Ex. 70] gave an IC50 of 110 nM.

`Cc1cc(C)c(NC(=O)C(C)(C)CCCCCCNCc2ccc(Cl)cc2)c2c1CC(C)(C)O2` [Ex. 73 (HCl salt)] registered an IC50 of 340 nM.

Molecule `Cc1cc(C)c(NC(=O)C(C)(C)CCCCCCN(C)Cc2ccccc2)c2c1CC(C)(C)O2` [Ex. 74 (HCl salt)] yielded an IC50 of 330 nM.

Molecule `Cc1cc(C)c(NC(=O)C(C)(C)CCCCCCN(C)Cc2ccc(Cl)cc2)c2c1CC(C)(C)O2` [Ex. 75] showed an IC50 of 120 nM.
